{
  "source": "patent US4333938A",
  "about": "“Imino derivatives of 5-aminobenzodioxole-1,3 which are useful as medicaments” (Laboratoires Sarget, priority 1979, dated 1982)",
  "key": {"carageenan-induced edema": {"tested_on": "carageenan-induced edema", "test": "inhibition of carrageenan-induced edema", "assay_type": "in vivo, male Wistar rat", "details": "oral, at To", "method": "The inflammation is produced in the male Wistar rat by injection of 0.1 ml of a 0.5% suspension of carageenan in physiological serum, into the muscular fascia of the metatarsal region of the hind foot of the animal. The test substance is administered orally at the same time as the carageenan or 30 or 60 min before carageenan. The edema is measured by plethysmometry three hours after the adminstration of the carrageenan."}, "[1]": {"tested_on": "carrageenan-induced granulomas", "test": "activity on carrageenan-induced granulomas", "assay_type": "in vivo, Male Wistar rats", "details": "25 mg/kg administered twice", "method": "Male Wistar rats weighing 130 to 150 grams were given a subcutaneous injection in the central part of the skin of the back of 0.5 ml of an aqueous suspension of carrageenan. Two doses of the test substance are administered, one 30 minutes before and the other 6 hours after carrageenan. At the end of 24 hours the rats were sacrificed and the granulomas were removed and weighed before and after drying for 24 hours at 50° C. The difference in weight of the granulomas wet and dry represents the exudate\nThese AD50 are respectively 175(142-215) and 175(150-205) mg/kg."}, "cotton pellet granulomas": {"tested_on": "cotton pellet granulomas", "test": "inhibition of cotton pellet granulomas", "assay_type": "in vivo, male Sprague-Dawley rats", "details": "oral, daily for 10 days, dose 50", "method": "Two cotton pellets weighing 70 mg were implanted under the back skin of male Sprague-Dawley rats anesthetized with ether. Starting the next day, the compound was administered orally daily for 10 days. The rats were sacrificed and the pellets were removed and weighed before and after drying at 50° C. for 24 hours. The weights used were those obtained after deduction of the weight of the implants. The average of the quantities so calculated was determined for each group and compared to the averages of the control group."}, "stomachs": {"tested_on": "stomachs", "test": "ulcerogenic activity", "assay_type": "in vivo, female Wistar rat", "details": "100 mg/kg daily", "method": "The ulcerogenic activity was determined in the female Wistar rat using a variation of the procedure described by J. M. Lwoff, J. Pharmacol. 1971, 3, 1, 81-3. The test substance was administered daily for 3 days to the animals maintained on a aqueous diet. The stomachs were removed after 1, 2, and 3 days of treatment and the ulcerations were classified from 0 to 4. The ulceration index is calculated for each group of animals as the product (average of the classes x the percentage of animals afflicted), while distinguishing acute ulcerations from ulcers which were in the process of healing."}, "blood sugar level": {"tested_on": "blood sugar level", "test": "antidiabetic activity, blood sugar level in streptozotocin hyperglycemic rats", "assay_type": "in vivo, Female rats", "set-up": "key: NS: the difference between the blood sugar level in the treated animals and the control animals is not significant; the difference is significant by Student's test at p≤0.05", "details": "oral", "method": "Female rats weighing 180-200 grams were given an intraperitoneal dose on day J0 of 100 mg/kg of streptozotocin in a 0.05 M citrate buffer at a pH of 4.5 calculated as 0.5 ml per 100 g of body weight. On day J2 hyperglycemic animals were selected by determining the blood sugar level by the orthotoludine method in a stream continuously removed from the retroorbital sinus. […] On day J3, without previous fasting, the selected animals received the treatment. This consisted of oral administration of the test compound in a 6% aqueous suspension of gum arabic at a volume of 0.5 ml per 100 g of body weight.\nThe animals were sacrificed one, two, or four hours after the treatment and their blood sugar levels were determined. Each group of animals was compared to a control group of animals which received only the suspension of gum arabic. Metformin was the substance chosen as the control.\nThe results are given in Table 8 which indicates the percentage of decrease in the blood sugar level produced by the treatment."}},
  "note": "Several values for one entry are separate records, joined by “and”; a condition that tells them apart may be missing. Equal values may be shown once.",
  "data": [
    {"smiles": "O=C(O)c1cccnc1Nc1cccc(C(F)(F)F)c1", "note": "[Niflumic Acid, reference compound]", "values": [
      {"measurement": "% inhibiting activity on carrageenan-induced edema", "setting": "carageenan-induced edema; 75 mg/kg", "result": 37, "unit": "%"},
      {"measurement": "% inhibiting activity on carrageenan-induced edema", "setting": "carageenan-induced edema; 100 mg/kg", "result": 27, "unit": "%"},
      {"measurement": "% inhibiting activity on carrageenan-induced edema", "setting": "carageenan-induced edema; 125 mg/kg", "result": 40, "unit": "%"},
      {"measurement": "% inhibiting activity on carrageenan-induced edema", "setting": "carageenan-induced edema; 150 mg/kg", "result": "37% and 59%"},
      {"measurement": "Exudate, % activity", "setting": "[1]", "result": 42.5, "unit": "%"},
      {"measurement": "Exudate, % animals 30% protected", "setting": "[1]", "result": 100, "unit": "%"},
      {"measurement": "Weight of dry granuloma, % activity", "setting": "[1]", "result": 41.5, "unit": "%"},
      {"measurement": "Weight of dry granuloma, % animals 30% protected", "setting": "[1]", "result": 87, "unit": "%"},
      {"measurement": "Weight of wet granuloma, % activity", "setting": "[1]", "result": 42.5, "unit": "%"},
      {"measurement": "Weight of wet granuloma, % animals 30% protected", "setting": "[1]", "result": 100, "unit": "%"},
      {"measurement": "% inhibition with respect to dry pellets", "setting": "cotton pellet granulomas", "result": 12, "unit": "%"},
      {"measurement": "% inhibition with respect to wet pellets", "setting": "cotton pellet granulomas", "result": 3, "unit": "%"},
      {"measurement": "Ulceration Index, acute", "setting": "stomachs; Day 1", "result": 330},
      {"measurement": "Ulceration Index, healing", "setting": "stomachs; Day 1", "result": 0},
      {"measurement": "Ulceration Index, acute", "setting": "stomachs; Day 2", "result": 1},
      {"measurement": "Ulceration Index, healing", "setting": "stomachs; Day 2", "result": 400},
      {"measurement": "Ulceration Index, acute", "setting": "stomachs; Day 3", "result": 119},
      {"measurement": "Ulceration Index, healing", "setting": "stomachs; Day 3", "result": 378}
    ]},
    {"smiles": "CN(C)C(=N)N=C(N)N", "note": "[Metformin, reference compound]", "values": [
      {"measurement": "Percentage Decrease in the Blood Sugar", "setting": "blood sugar level; 200 mg/kg, treatment 1 h before sacrificing", "result": "NS"},
      {"measurement": "Percentage Decrease in the Blood Sugar", "setting": "blood sugar level; 200 mg/kg, treatment 2 h before sacrificing", "result": "NS"},
      {"measurement": "Percentage Decrease in the Blood Sugar", "setting": "blood sugar level; 200 mg/kg, treatment 4 h before sacrificing", "result": "NS"},
      {"measurement": "Percentage Decrease in the Blood Sugar", "setting": "blood sugar level; 400 mg/kg, treatment 1 h before sacrificing", "result": 14, "unit": "%"},
      {"measurement": "Percentage Decrease in the Blood Sugar", "setting": "blood sugar level; 400 mg/kg, treatment 2 h before sacrificing", "result": "NS"},
      {"measurement": "Percentage Decrease in the Blood Sugar", "setting": "blood sugar level; 400 mg/kg, treatment 4 h before sacrificing", "result": 15, "unit": "%"}
    ]}
  ]
}
